“Also recorded” adds a separate entry of the source.
Experiments:
SCG ex-plant = assay: Neurite out-growth in SCG ex-plants with minimal NGF; format: cell-based; conditions: 30 μM compound, 1 ng/mL NGF, after 2 days
Experimental: FIG. 3A is an SCG ex-plant cultured in the absence of NGF. No neurite extensions are visible. FIG. 3B. is an SCG ex-plant cultured in the presence of compound 23 (30 μM).
In order to determine if these compounds were capable of augmenting NGF signaling in vitro, compound was added to cultured SCG neurons in the presence of ‘minimal’ quantities of NGF. […] Similar results were obtained using NGF differentiated PC12 cells (not shown).

TrkA = TrkA Phosphorylation Assay in PC12 cells; format: cell-based; conditions: compound 10-50 μM, NGF 10 ng/mL, compared with NGF 50 ng/mL, Western blot/autoradiograph
Experimental: Lane PC12 624 cells not treated with NGF; Lane B—PC12 624 cells treated with NGF (50 ng/mL) for 24 hrs; Lane C—PC12 624 cells treated with NGF (50 ng/mL) for 30 minutes; Lane D—PC12 624 cells treated with NGF (10 ng/mL) and compound 23 (50 μM); Lane E—PC12 624 cells treated with NGF (10 ng/mL) and compound 23 (40 μM), Lane F—PC12 624 cells treated with NGF (10 ng/mL) and compound 23 (30 μM); Lane G—PC12 624 cells treated with NGF (10 ng/mL) and compound 23 (20 μM); Lane H—PC12 624 cells treated with a NGF (10 ng/mL) and compound 23 (10 μM); Lane I—PC12 624 cells treated with NGF (50 ng/mL) for 24 hours, and re-treated with NGF (50 ng/mL) for 30 minutes; Lane J—PC12 624 cells treated with NGF (50 ng/mL) for 30 minutes.
TrkA phosphorylation may be monitored using Trk anti-bodies and Western blot analysis. […] In PC12 expressing cells, this effect is most robust at 30 minutes when 50 ng/mL of NGF is used.
TrkA Phosphorylation Assay: Culture media was removed from cultured PC12 cells (106-107, 50% confluent) and media containing NGF (1 to 50 ng/mL), 0.1% BSA, and compound (1 to 30 μM) was added. The cells were incubated for 1 to 60 minutes, the media was removed and the cells washed twice with ice cold TBS solution. […]

In the case of `O=c1oc2c(Sc3ccc4ccccc4c3)cc(O)cc2s1` [Compound 23, 5-Hydroxy-7-((2-naphthy)sulfanyl)benzo[1,3]oxathiol-2-one], the neurite outgrowth (SCG ex-plant) is reported as “Numerous ordered neurites are present; also recorded: visibly comparable to that observed under ‘optimal’ NGF concentrations” and the TrkA phosphorylation (TrkA) is reported as “maintains the level of TrkA phosphorylation even after 24 hours; also recorded: Comparable levels of TrkA phosphorylation”.

Source: patent publication US20060234987A1, “Neuroprotective benzo 1 3 oxathiol 2 ones” (priority 2003, published 2006)
